Our source for the LC retention time values is the RepoRT retention time repository (doi:10.1016/j.chroma.2022.462867).

What all share (settings): stereoisomer not certain
The nature of data set [1]: RP, Phenomenex Kinetex PS C18, 150 × 3 mm, 2.6 µm, 40 °C, 0.35 mL/min, estimated dead time 1.9 min; A: water + 5 mM ammonium acetate, pH 5; B: methanol; gradient (min/%B) 0/5 20/100 25/100 30/5.
Data set [2] in a line: RP, Phenomenex Kinetex EVO C18, 150 × 3 mm, 2.6 µm, 40 °C, 0.35 mL/min, estimated dead time 1.9 min; A: water + 5 mM ammonium formate, pH 5; B: acetonitrile; gradient (min/%B) 0/5 20/100 25/100 30/5.
Data set [3] in a line: RP, Phenomenex Kinetex EVO C18, 150 × 3 mm, 2.6 µm, 40 °C, 0.35 mL/min, estimated dead time 1.9 min; A: water + 0.1% formic acid, pH 3; B: methanol; gradient (min/%B) 0/5 20/100 25/100 30/5.

In the case of `O=[N+]([O-])c1ccc2ccc3cccc4ccc1c2c34` [1-Nitropyrene], the LC retention time in data set [1] was 18.4 min; in data set [2], 14.8 min.
For `Oc1ccc2ccc3cccc4ccc1c2c34` [1-hydroxypyrene], in that order: 16.7 min and 13.1 min.
In the case of `c1ccc2n[nH]nc2c1` [1H-Benzotriazole], the LC retention time was 7.35 min in data set [3], 8.12 min in data set [1] and 5 min in data set [2].
The matching figures for `CSc1nc2ccccc2s1` [2-(Methylthio)benzothiazole]: 15.2 min, 15 min and 11.6 min.
For the compound `O=C(O)c1ccc2ccccc2c1` [2-naphthoic acid], the values for the LC retention time in data set [3] and in data set [1] were 14.1 min and 13 min, respectively.
For the compound `Nc1ccc(Cl)cc1` [4-Chloroaniline], the values for the LC retention time in data set [3], in data set [1] and in data set [2] were 5.28 min, 10.3 min and 8.88 min, respectively.
For the compound `Cc1ccc2n[nH]nc2c1` [5-Methyl-1H-benzotriazole], the LC retention time is 9.78 min in data set [3], 10.4 min in data set [1] and 6.42 min in data set [2].
As for `CC12CCC3c4ccc(O)cc4CCC3C1CCC2O` (stereo not drawn) [17beta estradiol], the LC retention time in data set [3] was 15.2 min; in data set [1], 15.8 min; in data set [2], 11.2 min.
For the compound `CC(C)C1=CC2=CCC3C(C)(C(=O)O)CCCC3(C)C2CC1` (centres undefined) [Abietic acid], the LC retention time was 20.3 min in data set [1] and 16.9 min in data set [2].
Consider `CCc1cccc(CC)c1N(COC)C(=O)CCl` [Alachlor], for which the LC retention time in data set [3] was 16.2 min; in data set [1], 16.4 min; in data set [2], 13 min.
For `CCN=C1NC(NC(C)C)=NC(Cl)N1` (centres undefined) [Atrazine], the LC retention time was 13.6 min in data set [3] and 13.9 min in data set [1].
As for `c1ccc2scnc2c1` [Benzothiazole], the LC retention time is 11.2 min in data set [3], 11.5 min in data set [1] and 7.96 min in data set [2].
For `CC(O)(CS(=O)(=O)c1ccc(F)cc1)C(=O)Nc1ccc(C#N)c(C(F)(F)F)c1` (centres undefined) [Bicalutamide], in that order: 14.4 min, 14.6 min and 12.2 min.
For `Cn1c(=O)c2c(ncn2C)n(C)c1=O` [Caffeine], in that order: 6.69 min, 7.93 min and 3.88 min.
As to `NC(=O)N1c2ccccc2C=Cc2ccccc21` [Carbamazepine], the LC retention time in data set [3] was 12.6 min; in data set [1], 13.2 min.
Take `c1ccc2c(c1)[nH]c1ccccc12` [Carbazole]: the LC retention time in data set [3] was 15.5 min; in data set [1], 15.1 min; in data set [2], 12.5 min.
The matching figures for `Nc1cnn(-c2ccccc2)c(=O)c1Cl` [Chloridazon]: 8.88 min, 9.65 min and 6.18 min.
`CCOP(=S)(OCC)Oc1nc(Cl)c(Cl)cc1Cl` [Chlorpyrifos]: the LC retention time in data set [1] is 18.8 min; in data set [2] it was 15.9 min.
As for `NS(=O)(=O)c1cc(C2(O)NC(=O)c3ccccc32)ccc1Cl` (centres undefined) [Chlorthalidone], the LC retention time in data set [3] is 9.19 min; in data set [1] it was 9.81 min; in data set [2], 6.87 min.
For `CC12CCC(=O)C=C1CCC1C2C(O)CC2(C)C(C(=O)CO)CCC12` (centres undefined) [Corticosterone], in that order: 14 min, 15 min and 9.72 min.
The matching figures for `CCN=C1NC(Cl)NC(NC(C)(C)C#N)N1` (centres undefined) [Cyanazine]: 11.4 min, 12 min and 8.86 min.
The matching figures for `CN(C)C(=O)Nc1ccc(Cl)c(Cl)c1` [Diuron]: 13.9 min, 14.1 min and 10.6 min.
Consider `O=C1Nc2ccc(Cl)cc2C(C#CC2CC2)(C(F)(F)F)O1` (centres undefined) [Efavirenz], for which the values for the LC retention time in data set [3], in data set [1] and in data set [2] were 16.8 min, 16.7 min and 13.6 min, respectively.
With `CC12CCC3c4ccc(O)cc4CCC3C1CCC2=O` (centres undefined) [Estrone], the values for the LC retention time in data set [3], in data set [1] and in data set [2] were 15.1 min, 15.7 min and 11.7 min, respectively.
For the compound `CCCSP(=O)(OCC)SCCC` [Ethoprop], the LC retention time in data set [1] is 16.5 min.
For `N#Cc1nn(-c2c(Cl)cc(C(F)(F)F)cc2Cl)c(N)c1S(=O)C(F)(F)F` (centres undefined) [Fipronil], the LC retention time in data set [3] is 16.7 min; in data set [1], 16.6 min.
In the case of `COc1ccc(Cl)cc1C(=O)NCCc1ccc(S(=O)(=O)NC(=O)NC2CCCCC2)cc1` [Glibenclamide], the LC retention time in data set [3] is 16.2 min; in data set [1], 16 min; in data set [2] it was 12.5 min.
For `CCC1=C(C)CN(C(=O)NCCc2ccc(S(=O)(=O)NC(=O)NC3CCC(C)CC3)cc2)C1=O` (centres undefined) [Glimepiride], the LC retention time is 16.5 min in data set [1] and 12.8 min in data set [2].
Take `NS(=O)(=O)c1cc2c(cc1Cl)NCNS2(=O)=O` [Hydrochlorothiazide]: the LC retention time in data set [3] was 4.62 min; in data set [1] it was 13.8 min; in data set [2], 9.77 min.
`CC(=O)OCC(=O)C1(O)CCC2C3CCC4=CC(=O)CCC4(C)C3C(O)CC21C` (centres undefined) [Hydrocortisonacetate]: the LC retention time in data set [3] is 14.3 min; in data set [1] it was 15 min; in data set [2], 10.6 min.
For `C1=Cc2ccccc2Nc2ccccc21` [Iminostilbene], in that order: 15.7 min, 15.5 min and 13 min.
The matching figures for `CCCCC1=NC2(CCCC2)C(=O)N1Cc1ccc(-c2ccccc2-c2nn[nH]n2)cc1` [Irbesartan]: 14.5 min, 14.6 min and 9.45 min.
Consider `CSC1N=C(NC2CC2)NC(NC(C)(C)C)N1` (centres undefined) [Irgarol], for which the LC retention time in data set [1] was 16.6 min.
On the same count and under the same terms, in the case of `Nc1nc(N)nc(N)n1` [Melamine] it was 2.33 min.
On to `Cc1cccc(C)c1N(Cn1cccn1)C(=O)CCl` [Metazachlor], for which the LC retention time in data set [3] was 13.7 min; in data set [1], 14.1 min; in data set [2], 10.6 min.
Turning to `NC(=O)c1cccnc1` [Nicotinamide], the LC retention time in data set [1] is 3.85 min.
Turning to `Cc1cc(=O)n(-c2ccccc2)n1C` [Phenazone (Antipyrine)], the LC retention time in data set [3] was 7.82 min; in data set [1], 9.04 min.
As to `CSC1N=C(NC(C)C)NC(NC(C)C)=N1` [Prometryn], the LC retention time was 16.2 min in data set [1] and 12.5 min in data set [2].
For the compound `CCC(C)(C)C(=O)OC1CC(C)C=C2C=CC(C)C(CCC3CC(O)CC(=O)O3)C21` (centres undefined) [Simvastatin], the LC retention time in data set [1] is 19.1 min; in data set [2], 14.9 min.
The matching figures for `CCCCC(=O)N(Cc1ccc(-c2ccccc2-c2nn[nH]n2)cc1)C(C(=O)O)C(C)C` (centres undefined) [Valsartan]: 13.5 min and 8.73 min.
